Results from patent US9427482B2, “Agents for clearing biomolecules from circulation” (KONINKLIJKE PHILIPS N.V., priority 2010, dated 2016).

Test system: LS174T xenografts
Assay: Biodistribution, blood kinetics and excretion of CC49-TCO-18 pretargeted ^177Lu-tetrazine 15 (Example 12)
Type: in vivo, mice
Experimental: Groups of 4 mice bearing LS174T xenografts (70-100 mm^3) were injected either with directly labeled ^177Lu-DOTA-CC49 (100 μg/100 μl, ca. 0.5 MBq per mouse) or with CC49-TCO-18 pretargeted ^177Lu-tetrazine 15 (100 μg/100 μl CC49-TCO-18 followed by two 160 μg/100 μl doses of galactose-MSA-tetrazine 12 at 30 and 48 hours and by 8.52 μg/80 μl ^177Lu-tetrazine 15, 0.8-1.2 MBq per mouse, containing 100 μg gentisic acid). One group of mice injected with ^177Lu-DOTA-CC49 and one injected with pretargeted ^177Lu-tetrazine were used to evaluate the early blood distribution of the two tracers by withdrawing blood samples from the vena saphena at selected time points (2, 30, and 60 min for ^177Lu-DOTA-CC49 and 2, 5, 10, 20, 30, and 45 min for pretargeted ^177Lu-tetrazine) (FIG. 15). These two groups of mice were then sacrificed 3 h and 1 h after the injection of ^177Lu-DOTA-CC49 and ^177Lu-tetrazine, respectively. All other groups of mice were sacrificed at various time points up to 7 days post tracer injection. After sacrifice, blood was withdrawn by heart puncture and selected organs and tissues were harvested and blotted dry. The blood samples and tissues were weighed, added with 1 mL PBS and the radioactivity was counted in a gamma counter along with standards to determine the % ID/g and % ID (Tables 7-8). Two additional groups of tumor bearing mice were used for excretion profiles (FIG. 16). The mice injected with ^177Lu-DOTA-CC49 were housed in filtered caging units and at various time points the bedding was counted in a gamma counter along with standards. The other group of mice was injected with ^177Lu-tetrazine at higher specific activity (ca. 12 MBq/8.52 μg tetrazine per mouse) and whole body clearance was monitored by measuring the animals in a dose calibrator at various time points.

O=C([O-])CN1CCN(CC(=O)[O-])CCN(CC(=O)NCCOCCOCCOCCOCCOCCOCCOCCOCCOCCOCCOCCNC(=O)CCCC(=O)Nc2ccc(-c3nnc(-c4ccccn4)nn3)nc2)CCN(CC(=O)[O-])CC1.[177Lu+3] [^177Lu-tetrazine]
biodistribution bladder (1 hours): 2.21 ± 1.15 % ID/g | biodistribution blood (1 hours): 0.42 ± 0.20 % ID/g | biodistribution bone (1 hours): 1.08 ± 1.34 % ID/g | biodistribution brain (1 hours): 0.03 ± 0.03 % ID/g | biodistribution heart (1 hours): 0.16 ± 0.05 % ID/g | biodistribution kidney (1 hours): 2.38 ± 0.55 % ID/g | biodistribution lg. intestine (1 hours): 0.38 ± 0.11 % ID | biodistribution liver (1 hours): 0.29 ± 0.08 % ID/g | biodistribution lung (1 hours): 0.54 ± 0.15 % ID/g | biodistribution muscle (1 hours): 0.23 ± 0.21 % ID/g | biodistribution ovaries (1 hours): 0.57 ± 0.37 % ID/g | biodistribution sm. intestine (1 hours): 0.16 ± 0.03 % ID | biodistribution spleen (1 hours): 0.17 ± 0.04 % ID/g | biodistribution stomach (1 hours): 0.10 ± 0.10 % ID | biodistribution tumor (1 hours): 4.71 ± 1.13 % ID/g | biodistribution uterus (1 hours): 2.80 ± 1.64 % ID/g | biodistribution bladder (3 hours): 0.85 ± 0.64 % ID/g | biodistribution blood (3 hours): 0.03 ± 0.00 % ID/g | biodistribution bone (3 hours): 0.17 ± 0.19 % ID/g | biodistribution brain (3 hours): 0.00 ± 0.00 % ID/g | biodistribution heart (3 hours): 0.04 ± 0.00 % ID/g | biodistribution kidney (3 hours): 1.58 ± 0.14 % ID/g | biodistribution lg. intestine (3 hours): 0.15 ± 0.04 % ID | biodistribution liver (3 hours): 0.18 ± 0.02 % ID/g | biodistribution lung (3 hours): 0.21 ± 0.03 % ID/g | biodistribution muscle (3 hours): 0.05 ± 0.03 % ID/g | biodistribution ovaries (3 hours): 0.21 ± 0.19 % ID/g | biodistribution sm. intestine (3 hours): 0.22 ± 0.07 % ID | biodistribution spleen (3 hours): 0.09 ± 0.01 % ID/g | biodistribution stomach (3 hours): 0.02 ± 0.01 % ID | biodistribution tumor (3 hours): 5.38 ± 0.48 % ID/g | biodistribution uterus (3 hours): 0.35 ± 0.42 % ID/g | injected activity excreted in the urine (3 hours post injection): over 95% | tumor-to-blood ratio (3 hours post injection): ~200 | biodistribution bladder (6 hours): 0.20 ± 0.08 % ID/g | biodistribution blood (6 hours): 0.02 ± 0.00 % ID/g | biodistribution bone (6 hours): 0.03 ± 0.00 % ID/g | biodistribution brain (6 hours): 0.00 ± 0.00 % ID/g | biodistribution heart (6 hours): 0.03 ± 0.01 % ID/g | biodistribution kidney (6 hours): 1.09 ± 0.18 % ID/g | biodistribution lg. intestine (6 hours): 0.05 ± 0.01 % ID | biodistribution liver (6 hours): 0.15 ± 0.01 % ID/g | biodistribution lung (6 hours): 0.11 ± 0.02 % ID/g | biodistribution muscle (6 hours): 0.02 ± 0.00 % ID/g | biodistribution ovaries (6 hours): 0.09 ± 0.02 % ID/g | biodistribution sm. intestine (6 hours): 0.38 ± 0.26 % ID | biodistribution spleen (6 hours): 0.07 ± 0.01 % ID/g | biodistribution stomach (6 hours): 0.01 ± 0.01 % ID | biodistribution tumor (6 hours): 4.53 ± 1.69 % ID/g | biodistribution uterus (6 hours): 0.10 ± 0.04 % ID/g | biodistribution bladder (1 day): 0.20 ± 0.06 % ID/g | biodistribution blood (1 day): 0.01 ± 0.00 % ID/g | biodistribution bone (1 day): 0.03 ± 0.01 % ID/g | biodistribution brain (1 day): 0.00 ± 0.00 % ID/g | biodistribution heart (1 day): 0.03 ± 0.00 % ID/g | biodistribution kidney (1 day): 1.01 ± 0.13 % ID/g | biodistribution lg. intestine (1 day): 0.06 ± 0.06 % ID | biodistribution liver (1 day): 0.13 ± 0.02 % ID/g | biodistribution lung (1 day): 0.10 ± 0.01 % ID/g | biodistribution muscle (1 day): 0.02 ± 0.00 % ID/g | biodistribution ovaries (1 day): 0.08 ± 0.03 % ID/g | biodistribution sm. intestine (1 day): 0.09 ± 0.05 % ID | biodistribution spleen (1 day): 0.07 ± 0.01 % ID/g | biodistribution stomach (1 day): 0.04 ± 0.05 % ID | biodistribution tumor (1 day): 3.83 ± 0.95 % ID/g | biodistribution uterus (1 day): 0.09 ± 0.02 % ID/g | biodistribution bladder (2 days): 0.12 ± 0.07 % ID/g | biodistribution blood (2 days): 0.01 ± 0.00 % ID/g | biodistribution bone (2 days): 0.02 ± 0.00 % ID/g | biodistribution brain (2 days): 0.00 ± 0.00 % ID/g | biodistribution heart (2 days): 0.03 ± 0.01 % ID/g | biodistribution kidney (2 days): 0.49 ± 0.07 % ID/g | biodistribution lg. intestine (2 days): 0.07 ± 0.08 % ID | biodistribution liver (2 days): 0.11 ± 0.02 % ID/g | biodistribution lung (2 days): 0.08 ± 0.03 % ID/g | biodistribution muscle (2 days): 0.02 ± 0.01 % ID/g | biodistribution ovaries (2 days): 0.10 ± 0.06 % ID/g | biodistribution sm. intestine (2 days): 0.06 ± 0.06 % ID | biodistribution spleen (2 days): 0.07 ± 0.01 % ID/g | biodistribution stomach (2 days): 0.01 ± 0.01 % ID | biodistribution tumor (2 days): 3.15 ± 1.32 % ID/g | biodistribution uterus (2 days): 0.12 ± 0.09 % ID/g | biodistribution bladder (4 days): 0.13 ± 0.04 % ID/g | biodistribution blood (4 days): 0.00 ± 0.00 % ID/g | biodistribution bone (4 days): 0.02 ± 0.01 % ID/g | biodistribution brain (4 days): 0.00 ± 0.00 % ID/g | biodistribution heart (4 days): 0.02 ± 0.00 % ID/g | biodistribution kidney (4 days): 0.34 ± 0.02 % ID/g | biodistribution lg. intestine (4 days): 0.03 ± 0.02 % ID | biodistribution liver (4 days): 0.14 ± 0.02 % ID/g | biodistribution lung (4 days): 0.06 ± 0.01 % ID/g | biodistribution muscle (4 days): 0.01 ± 0.00 % ID/g | biodistribution ovaries (4 days): 0.09 ± 0.02 % ID/g | biodistribution sm. intestine (4 days): 0.04 ± 0.04 % ID | biodistribution spleen (4 days): 0.07 ± 0.01 % ID/g | biodistribution stomach (4 days): 0.01 ± 0.00 % ID | biodistribution tumor (4 days): 2.06 ± 0.84 % ID/g | biodistribution uterus (4 days): 0.10 ± 0.07 % ID/g | biodistribution bladder (7 days): 0.15 ± 0.02 % ID/g | biodistribution blood (7 days): 0.00 ± 0.00 % ID/g | biodistribution bone (7 days): 0.01 ± 0.00 % ID/g | biodistribution brain (7 days): 0.00 ± 0.00 % ID/g | biodistribution heart (7 days): 0.01 ± 0.00 % ID/g | biodistribution kidney (7 days): 0.19 ± 0.04 % ID/g | biodistribution lg. intestine (7 days): 0.02 ± 0.01 % ID | biodistribution liver (7 days): 0.13 ± 0.03 % ID/g | biodistribution lung (7 days): 0.04 ± 0.01 % ID/g | biodistribution muscle (7 days): 0.01 ± 0.00 % ID/g | biodistribution ovaries (7 days): 0.08 ± 0.04 % ID/g | biodistribution sm. intestine (7 days): 0.07 ± 0.04 % ID | biodistribution spleen (7 days): 0.08 ± 0.01 % ID/g | biodistribution stomach (7 days): 0.01 ± 0.00 % ID | biodistribution tumor (7 days): 1.02 ± 0.36 % ID/g | biodistribution uterus (7 days): 0.21 ± 0.16 % ID/g | T1/2, elimination from blood (CC49-TCO pretargeted mice): 11.2 min | tumor-to-blood ratio (by the end of the experiment (7 days)): over 500
